Measurements as given in patent publication US10406207B2, “Peptide conjugates of GLP-1 receptor agonists and gastrin and their use” (priority 2010, dated 2019).
Square brackets hold non-standard residues; d marks the D form. Peptide text beside a SMILES is read from it. Orn = NCCC[C@H](N)C(=O)O; AEEA = NCCOCCOCC(=O)O

What was measured:
human GLP-1 R = target: T1, human GLP-1 R (Homo sapiens, UniProt P43220); experiment: Human GLP-1 receptor efficacy assay (cAMP induction, FlashPlate); assay type: cell-based; conditions: Table 2; read-out: hGLP-1 R EC50
T1 construct: expressed in transfected cells
T1 sequence (P43220 24-463): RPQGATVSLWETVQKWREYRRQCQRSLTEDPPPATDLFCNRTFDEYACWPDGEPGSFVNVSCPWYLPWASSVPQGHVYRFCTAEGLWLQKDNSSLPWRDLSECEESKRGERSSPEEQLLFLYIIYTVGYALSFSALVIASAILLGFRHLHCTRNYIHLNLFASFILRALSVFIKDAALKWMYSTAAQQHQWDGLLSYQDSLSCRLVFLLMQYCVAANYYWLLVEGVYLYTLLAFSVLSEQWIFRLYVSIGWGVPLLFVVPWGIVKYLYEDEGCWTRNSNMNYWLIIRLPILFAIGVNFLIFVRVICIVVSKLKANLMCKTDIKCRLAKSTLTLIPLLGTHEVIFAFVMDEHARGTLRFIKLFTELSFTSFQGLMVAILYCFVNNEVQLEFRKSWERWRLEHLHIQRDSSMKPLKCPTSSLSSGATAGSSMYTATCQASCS
Method: On the day of analysis, growth medium was removed and the cells were washed once with 200 μl Tyrode buffer [Tyrode's Salts (9.6 g/l), 10 mM HEPES, pH 7.4]. […] The reaction was stopped by addition of 25 μl 0.5 M HCl and incubated on ice for 60 min.

human CCK-B R = target: T2, human CCK-B R (Homo sapiens, UniProt P32239); experiment: Human CCK-B receptor efficacy assay (AlphaScreen SureFire p-ERK); assay type: cell-based; conditions: Table 2; read-out: hCCK-B R EC50
T2 construct: expressed in transfected cells
T2 sequence (P32239 1-447): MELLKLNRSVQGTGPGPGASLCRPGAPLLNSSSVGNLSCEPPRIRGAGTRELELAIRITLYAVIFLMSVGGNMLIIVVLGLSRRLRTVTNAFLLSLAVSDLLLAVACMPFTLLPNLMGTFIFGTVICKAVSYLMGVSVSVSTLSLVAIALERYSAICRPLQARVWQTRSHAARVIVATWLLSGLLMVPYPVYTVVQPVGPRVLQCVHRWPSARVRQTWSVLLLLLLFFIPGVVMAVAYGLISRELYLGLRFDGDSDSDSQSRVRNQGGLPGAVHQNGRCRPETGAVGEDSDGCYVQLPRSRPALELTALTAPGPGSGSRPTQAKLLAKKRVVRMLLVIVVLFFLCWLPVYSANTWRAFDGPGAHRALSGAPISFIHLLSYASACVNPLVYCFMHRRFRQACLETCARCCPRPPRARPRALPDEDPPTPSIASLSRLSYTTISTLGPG
Method: CCK-B Receptor (CCK-B R) Efficacy Assay:
In vitro effects of peptide conjugates of the invention were estimated by measuring p-ERK (using the AlphaScreen™ SureFire p-ERK assay) in HEK293 cells stably expressing the human and mouse CCK-B R (high-affinity Gastrin receptor), respectively. The Gastrin receptor efficacy assays (AlphaScreen™ SureFire p-ERK assay) were performed as follows:
The CCK-B R expressing cells in question were seeded at 20,000 cells/well in 100 μl growth medium [DMEM, 10% FCS, Penicillin (100 IU/ml), Streptomycin (100 μg/ml)] in a 96-well plate coated with poly-D-lysine. The cells were incubated in an incubator (37° C., 5% 002) for two days.
The growth medium was changed to 80 μl of serum-free medium [DMEM, Penicillin (100 IU/ml), Streptomycin (100 μg/ml)] per well, and incubation of the cells was continued for 19 hours in the incubator (37° C., 5% CO2).
After 19 hours, 20 μl of serum-free medium containing one of 5 different concentrations of peptide conjugate was added (performed in triplicate for each concentration), and the cells were incubated for 5 min. at room temperature. • 2. The stimulation medium was discarded by quickly turning the plate upside down, and 60 μl 1× lysis buffer (from the SureFire assay kit) was added per well. • 3. The plate was shaken on a plate-shaker for 5 min and then placed on ice. • 4. SureFire P-ERK assay: 4 μl of each supernatant was transferred to a 384 well proxiplate (Perkin Elmer). • 5. 4 μl of each of the two control lysates (unstimulated and stimulated) were added to the proxiplate in duplicate. • 6. […] 7 μl of the latter reaction buffer+activation buffer+beads per well were added in the proxiplate, the mix being resuspended carefully before addition to the wells. • 7. The plate was incubated for 2 hours in a dark box in a 22° C. incubator. • 8. The plate was analyzed on an Envision™ light-emission plate reader (Perkin-Elmer) using the appropriate reading program (Perkin-Elmer).

EC50 (human GLP-1 R) [nM] | EC50 (human CCK-B R) [nM] | Compound
0.079 | 14 | CC[C@H](C)[C@H](NC(=O)[C@H](Cc1ccccc1)NC(=O)[C@H](CC(C)C)NC(=O)[C@H](CCCNC(=N)N)NC(=O)[C@@H](NC(=O)[C@H](C)NC(=O)[C@H](CCC(=O)O)NC(=O)[C@H](CCC(=O)O)NC(=O)[C@H](CCC(=O)O)NC(=O)[C@H](CC(C)C)NC(=O)[C@H](Cc1ccc(O)cc1)NC(=O)[C@H](CCCNC(=N)N)NC(=O)[C@H](CO)NC(=O)[C@H](CC(C)C)NC(=O)[C@H](CC(=O)O)NC(=O)[C@H](CO)NC(=O)[C@@H](NC(=O)[C@H](Cc1ccccc1)NC(=O)[C@@H](NC(=O)CNC(=O)[C@H](CCC(=O)O)NC(=O)CNC(=O)[C@@H](N)Cc1c[nH]cn1)[C@@H](C)O)[C@@H](C)O)C(C)C)C(=O)N[C@@H](CCC(=O)O)C(=O)N[C@@H](Cc1ccccc1)C(=O)N[C@@H](CC(C)C)C(=O)N[C@@H](CCCCN)C(=O)NCCOCCOCC(=O)N[C@@H](Cc1ccc(O)cc1)C(=O)NCC(=O)N[C@@H](Cc1c[nH]c2ccccc12)C(=O)N[C@@H](CC(C)C)C(=O)N[C@@H](CC(=O)O)C(=O)N[C@@H](Cc1ccccc1)C(N)=O [Compound 95, [Arg12,Leu14,Phe25,Tyr13]Exendin-4(1-27)-Peg3-[Leu4]Gastrin6] (H-HGEGTFTSDLSRYLEEEAVRLFIEFLK[AEEA]YGWLDF-NH2)
0.06 | 13 | CC[C@H](C)[C@H](NC(=O)[C@H](Cc1ccccc1)NC(=O)[C@H](CC(C)C)NC(=O)[C@H](CCCNC(=N)N)NC(=O)[C@@H](NC(=O)[C@H](C)NC(=O)[C@H](CCC(=O)O)NC(=O)[C@H](CCC(=O)O)NC(=O)[C@H](CCC(=O)O)NC(=O)[C@H](CC(C)C)NC(=O)[C@H](Cc1ccc(O)cc1)NC(=O)[C@H](CCCCN)NC(=O)[C@H](CO)NC(=O)[C@H](CC(C)C)NC(=O)[C@H](CCC(=O)O)NC(=O)[C@H](CO)NC(=O)[C@@H](NC(=O)[C@H](Cc1ccccc1)NC(=O)[C@@H](NC(=O)CNC(=O)[C@H](CCC(=O)O)NC(=O)CNC(=O)[C@@H](N)Cc1c[nH]cn1)[C@@H](C)O)[C@@H](C)O)C(C)C)C(=O)N[C@@H](CCC(=O)O)C(=O)N[C@@H](Cc1ccccc1)C(=O)N[C@@H](CC(C)C)C(=O)N[C@@H](CCCCN)C(=O)NCCOCCOCC(=O)N[C@@H](Cc1c[nH]c2ccccc12)C(=O)N[C@@H](CC(C)C)C(=O)N[C@@H](CC(=O)O)C(=O)N[C@@H](Cc1ccccc1)C(N)=O [Compound 97, [Glu9,Leu14,Phe25,Tyr13]Exendin-4(1-27)-Peg3-[Leu2]Gastrin4] (H-HGEGTFTSELSKYLEEEAVRLFIEFLK[AEEA]WLDF-NH2)
0.046 | 10 | CC[C@H](C)[C@H](NC(=O)[C@H](Cc1ccccc1)NC(=O)[C@H](CC(C)C)NC(=O)[C@H](CCCNC(=N)N)NC(=O)[C@@H](NC(=O)[C@H](C)NC(=O)[C@H](CCC(=O)O)NC(=O)[C@H](CCC(=O)O)NC(=O)[C@H](CCC(=O)O)NC(=O)[C@H](CC(C)C)NC(=O)[C@H](Cc1ccc(O)cc1)NC(=O)[C@H](CCCCN)NC(=O)[C@H](CO)NC(=O)[C@H](CC(C)C)NC(=O)[C@H](CCC(=O)O)NC(=O)[C@H](CO)NC(=O)[C@@H](NC(=O)[C@H](Cc1ccccc1)NC(=O)[C@@H](NC(=O)CNC(=O)[C@H](CCC(=O)O)NC(=O)CNC(=O)[C@@H](N)Cc1c[nH]cn1)[C@@H](C)O)[C@@H](C)O)C(C)C)C(=O)N[C@@H](CCC(=O)O)C(=O)N[C@@H](Cc1ccccc1)C(=O)N[C@@H](CC(C)C)C(=O)N[C@@H](CCCCN)C(=O)N[C@@H](CCCN)C(=O)NCCOCCOCC(=O)N[C@@H](Cc1c[nH]c2ccccc12)C(=O)N[C@@H](CC(C)C)C(=O)N[C@@H](CC(=O)O)C(=O)N[C@@H](Cc1ccccc1)C(N)=O [Compound 98, [Glu9,Leu14,Phe25,Tyr13]Exendin-4(1-27)-Orn-Peg3-[Leu2]Gastrin4] (H-HGEGTFTSELSKYLEEEAVRLFIEFLK[Orn][AEEA]WLDF-NH2)
0.041 | 51 | CC[C@H](C)[C@H](NC(=O)[C@H](Cc1ccccc1)NC(=O)[C@H](CC(C)C)NC(=O)[C@H](CCCNC(=N)N)NC(=O)[C@@H](NC(=O)[C@H](C)NC(=O)[C@H](CCC(=O)O)NC(=O)[C@H](CCC(=O)O)NC(=O)[C@H](CCC(=O)O)NC(=O)[C@H](CC(C)C)NC(=O)[C@H](Cc1ccc(O)cc1)NC(=O)[C@H](CCCCN)NC(=O)[C@H](CO)NC(=O)[C@H](CC(C)C)NC(=O)[C@H](CCC(=O)O)NC(=O)[C@H](CO)NC(=O)[C@@H](NC(=O)[C@H](Cc1ccccc1)NC(=O)[C@@H](NC(=O)CNC(=O)[C@H](CCC(=O)O)NC(=O)CNC(=O)[C@@H](N)Cc1c[nH]cn1)[C@@H](C)O)[C@@H](C)O)C(C)C)C(=O)N[C@@H](CCC(=O)O)C(=O)N[C@@H](Cc1ccccc1)C(=O)N[C@@H](CC(C)C)C(=O)N[C@@H](CCCCN)C(=O)NCCOCCOCC(=O)N[C@@H](CCCN)C(=O)N[C@@H](Cc1c[nH]c2ccccc12)C(=O)N[C@@H](CC(C)C)C(=O)N[C@@H](CC(=O)O)C(=O)N[C@@H](Cc1ccccc1)C(N)=O [Compound 99, [Glu9,Leu14,Phe25,Tyr13]Exendin-4(1-27)-Peg3-Orn-[Leu2]Gastrin4] (H-HGEGTFTSELSKYLEEEAVRLFIEFLK[AEEA][Orn]WLDF-NH2)
0.11 | 860 | CC[C@H](C)[C@H](NC(=O)[C@H](Cc1ccccc1)NC(=O)[C@H](CC(C)C)NC(=O)[C@H](CCCNC(=N)N)NC(=O)[C@@H](NC(=O)[C@H](C)NC(=O)[C@H](CCC(=O)O)NC(=O)[C@H](CCC(=O)O)NC(=O)[C@H](CCC(=O)O)NC(=O)[C@H](CC(C)C)NC(=O)[C@H](Cc1ccc(O)cc1)NC(=O)[C@H](CCCCN)NC(=O)[C@H](CO)NC(=O)[C@H](CC(C)C)NC(=O)[C@H](CCC(=O)O)NC(=O)[C@H](CO)NC(=O)[C@@H](NC(=O)[C@H](Cc1ccccc1)NC(=O)[C@@H](NC(=O)CNC(=O)[C@H](CCC(=O)O)NC(=O)CNC(=O)[C@@H](N)Cc1c[nH]cn1)[C@@H](C)O)[C@@H](C)O)C(C)C)C(=O)N[C@@H](CCC(=O)O)C(=O)N[C@@H](Cc1ccccc1)C(=O)N[C@@H](CC(C)C)C(=O)N[C@@H](CCCCN)C(=O)N[C@@H](CCCN)C(=O)N[C@@H](CCCN)C(=O)N[C@@H](Cc1c[nH]c2ccccc12)C(=O)N[C@@H](CC(C)C)C(=O)N[C@@H](CC(=O)O)C(=O)N[C@@H](Cc1ccccc1)C(N)=O [Compound 100, [Glu9,Leu14,Phe25,Tyr13]Exendin-4(1-27)-Orn-Orn-[Leu2]Gastrin4] (H-HGEGTFTSELSKYLEEEAVRLFIEFLK[Orn][Orn]WLDF-NH2)
0.091 | 54 | CC[C@H](C)[C@H](NC(=O)[C@H](Cc1ccccc1)NC(=O)[C@H](CC(C)C)NC(=O)[C@H](CCCNC(=N)N)NC(=O)[C@@H](NC(=O)[C@H](C)NC(=O)[C@H](CCC(=O)O)NC(=O)[C@H](CCC(=O)O)NC(=O)[C@H](CCC(=O)O)NC(=O)[C@H](CC(C)C)NC(=O)[C@H](Cc1ccc(O)cc1)NC(=O)[C@H](CCCCN)NC(=O)[C@H](CO)NC(=O)[C@H](CC(C)C)NC(=O)[C@H](CCC(=O)O)NC(=O)[C@H](CO)NC(=O)[C@@H](NC(=O)[C@H](Cc1ccccc1)NC(=O)[C@@H](NC(=O)CNC(=O)[C@H](CCC(=O)O)NC(=O)CNC(=O)[C@@H](N)Cc1c[nH]cn1)[C@@H](C)O)[C@@H](C)O)C(C)C)C(=O)N[C@@H](CCC(=O)O)C(=O)N[C@@H](Cc1ccccc1)C(=O)N[C@@H](CC(C)C)C(=O)N[C@@H](CCCCN)C(=O)NCCOCCOCC(=O)N[C@@H](Cc1ccc(O)cc1)C(=O)NCC(=O)N[C@@H](Cc1c[nH]c2ccccc12)C(=O)N[C@@H](CC(C)C)C(=O)N[C@@H](CC(=O)O)C(=O)N[C@@H](Cc1ccccc1)C(N)=O [Compound 102, [Glu9,Leu14,Phe25,Tyr13]Exendin-4(1-27)-Peg3-[Leu4]Gastrin6]
